Measurements reported in ChEMBL document CHEMBL4002627, “Quinolidene based monocarbonyl curcumin analogues as promising antimycobacterial agents: Synthesis and molecular docking study” (Bioorg Med Chem Lett, 2017).
Values after ≈ are worked out from the molar mass of the structure shown.

What was measured:
Format in all cases: functional
[1] = test system: Mycobacterium tuberculosis; experiment: Antimycobacterial activity against dormant state of Mycobacterium bovis BCG assessed as growth inhibition at 10 ug/ml after 12 days by nitrate reductase assay relative to control; details: variant bovis BCG, 288 h, read-out: GI
[2] = test system: Mycobacterium tuberculosis; experiment: Antimycobacterial activity against dormant state of Mycobacterium bovis BCG by two fold dilution method; details: variant bovis BCG
[3] = test system: Mycobacterium tuberculosis; experiment: Antimycobacterial activity against dormant state of Mycobacterium bovis BCG assessed as growth inhibition at 30 ug/ml after 12 days by nitrate reductase assay relative to control; details: variant bovis BCG, 288 h, read-out: GI
[4] = test system: Mycobacterium tuberculosis; experiment: Antimycobacterial activity against dormant state of Mycobacterium bovis BCG assessed as growth inhibition at 3 ug/ml after 12 days by nitrate reductase assay relative to control; details: variant bovis BCG, 288 h, read-out: GI

SMILES	inhibition of growth at 10 µg/mL [1] [%]	MIC50 [2] [µg/mL]	MIC90 [2] [µg/mL]	inhibition of growth at 30 µg/mL [3] [%]	inhibition of growth at 3 µg/mL [4] [%]
Cc1ccc2nc(Cl)c(/C=C3\CNC/C(=C\c4cc5cc(C)ccc5nc4Cl)C3=O)cc2c1	38.5	> 30	> 30	45.9	35.3
Cc1ccc2nc(Cl)c(/C=C3\CN(C)C/C(=C\c4cc5cc(C)ccc5nc4Cl)C3=O)cc2c1	1	> 30	> 30	20.2	-5.7
O=C1/C(=C/c2cc3cc(F)ccc3nc2Cl)CNC/C1=C\c1cc2cc(F)ccc2nc1Cl	93.4	2.1 (≈ 4.35 µM)	9.2 (≈ 19.1 µM)	96.1	61.9
O=C1/C(=C/c2cc3cc(Cl)ccc3nc2Cl)CNC/C1=C\c1cc2cc(Cl)ccc2nc1Cl	24.6	19.7 (≈ 38.2 µM)	> 30	77.6	37.5
Cc1cccc2cc(/C=C3\CN(C)C/C(=C\c4cc5cccc(C)c5nc4Cl)C3=O)c(Cl)nc12	35.9	20.8 (≈ 42.6 µM)	> 30	62.4	19.1
CO[C@H]1/C=C/O[C@@]2(C)Oc3c(C)c(O)c4c(O)c(c(/C=N/N5CCN(C)CC5)c(O)c4c3C2=O)NC(=O)/C(C)=C\C=C\[C@H](C)[C@H](O)[C@@H](C)[C@@H](O)[C@@H](C)[C@H](OC(C)=O)[C@@H]1C [RIFAMPIN]	–	0.0043 (≈ 0.00523 µM)	0.0173 (≈ 0.021 µM)	–	–
CN1C/C(=C\c2cc3cc(Cl)ccc3nc2Cl)C(=O)/C(=C/c2cc3cc(Cl)ccc3nc2Cl)C1	82.1	3.3 (≈ 6.24 µM)	21.5 (≈ 40.6 µM)	96.2	49
COc1ccc2nc(Cl)c(/C=C3\CNC/C(=C\c4cc5cc(OC)ccc5nc4Cl)C3=O)cc2c1	48.4	11 (≈ 21.7 µM)	27.2 (≈ 53.7 µM)	97.2	28
CN1C/C(=C\c2cc3ccccc3nc2Cl)C(=O)/C(=C/c2cc3ccccc3nc2Cl)C1	61.7	6 (≈ 13 µM)	7.3 (≈ 15.9 µM)	97.5	31.7
CN1C/C(=C\c2cc3cc(F)ccc3nc2Cl)C(=O)/C(=C/c2cc3cc(F)ccc3nc2Cl)C1	1	25.6 (≈ 51.6 µM)	> 30	63.8	17.6
Cc1ccc2cc(/C=C3\CN(C)C/C(=C\c4cc5ccc(C)cc5nc4Cl)C3=O)c(Cl)nc2c1	89.4	5.8 (≈ 11.9 µM)	15.4 (≈ 31.5 µM)	90.4	23.2
Cc1ccc2cc(/C=C3\CNC/C(=C\c4cc5ccc(C)cc5nc4Cl)C3=O)c(Cl)nc2c1	43.4	12.9 (≈ 27.2 µM)	> 30	89.8	33.8
COc1ccc2nc(Cl)c(/C=C3\CN(C)C/C(=C\c4cc5cc(OC)ccc5nc4Cl)C3=O)cc2c1	13.3	> 30	> 30	31.9	22.9
COc1ccc2cc(/C=C3\CNC/C(=C\c4cc5ccc(OC)cc5nc4Cl)C3=O)c(Cl)nc2c1	98.3	1.4 (≈ 2.76 µM)	2.7 (≈ 5.33 µM)	96.8	94.6
Cc1cccc2cc(/C=C3\CNC/C(=C\c4cc5cccc(C)c5nc4Cl)C3=O)c(Cl)nc12	66.7	2.5 (≈ 5.27 µM)	> 30	77.1	52.1
O=C1/C(=C/c2cc3ccccc3nc2Cl)CNC/C1=C\c1cc2ccccc2nc1Cl	50.6	9.6 (≈ 21.5 µM)	> 30	79.7	38.3
COc1ccc2cc(/C=C3\CN(C)C/C(=C\c4cc5ccc(OC)cc5nc4Cl)C3=O)c(Cl)nc2c1	95.6	5.8 (≈ 11.1 µM)	9.4 (≈ 18.1 µM)	92.4	22.3
